This passage reports residual activity results from the kinase profiling compilation of Christmann-Franck et al. (2016).

Some targets named below: CDK2 CCNA2 (human) (UniProt P24941+P20248); CDK2 CCNE1 (human) (UniProt P24941+P24864); CDK1 CCNA2 (human) (UniProt P06493+P20248); PRKCH (human) (UniProt P24723); STK33 (human) (UniProt Q9BYT3); LTK (human) (UniProt P29376); DYRK1B (human) (UniProt Q9Y463); CDK3 CCNE1 (human) (UniProt Q00526+P24864); CDK9 CCNK (human) (UniProt O75909+P50750); CDK5 CDK5R1 p35 (human) (UniProt Q00535+Q15078); CDK6 CCND1 (human) (UniProt Q00534+P24385); CDK9 CCNT1 (human) (UniProt P50750+O60563); CDK1 CCNB1 (human) (UniProt P06493+P14635); CDK6 CCND3 (human) (UniProt P30281+Q00534); CDK4 CCND1 (human) (UniProt P24385+P11802); CDK7 CCNH MNAT1 (human) (UniProt P50613+P51948+P51946); CDK4 CCND3 (human) (UniProt P30281+P11802); CDK5 CDK5R1 p25 (human) (UniProt Q00535+Q15078); FYN (human) (UniProt P06241); CSNK1A1 (human) (UniProt P48729); MAP3K7 TAB1 (human) (UniProt O43318+Q15750).

Experiment in all cases: radiometric filter-binding kinase assay, Kinase HotSpot
Conditions in all cases: compound 0.5 µM; ATP 10 µM

Sequence of DYRK1B (human) (Q9Y463 whole entry, looked up): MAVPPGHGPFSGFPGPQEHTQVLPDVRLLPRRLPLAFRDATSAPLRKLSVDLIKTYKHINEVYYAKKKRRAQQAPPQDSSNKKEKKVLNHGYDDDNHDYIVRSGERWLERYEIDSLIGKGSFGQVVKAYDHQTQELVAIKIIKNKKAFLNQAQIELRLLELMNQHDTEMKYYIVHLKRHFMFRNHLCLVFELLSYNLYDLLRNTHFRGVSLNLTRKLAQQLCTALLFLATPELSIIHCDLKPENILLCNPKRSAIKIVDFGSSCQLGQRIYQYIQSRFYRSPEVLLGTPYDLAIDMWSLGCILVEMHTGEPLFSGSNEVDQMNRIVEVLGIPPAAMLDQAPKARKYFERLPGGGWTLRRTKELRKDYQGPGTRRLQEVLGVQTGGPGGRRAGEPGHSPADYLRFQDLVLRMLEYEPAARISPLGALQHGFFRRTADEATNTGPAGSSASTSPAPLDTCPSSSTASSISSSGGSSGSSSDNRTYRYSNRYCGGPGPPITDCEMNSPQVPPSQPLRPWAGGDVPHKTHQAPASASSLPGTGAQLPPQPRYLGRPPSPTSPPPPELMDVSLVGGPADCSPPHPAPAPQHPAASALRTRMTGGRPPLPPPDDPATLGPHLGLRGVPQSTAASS
Sequence of CDK1 CCNB1 (human) (P06493 whole entry, looked up): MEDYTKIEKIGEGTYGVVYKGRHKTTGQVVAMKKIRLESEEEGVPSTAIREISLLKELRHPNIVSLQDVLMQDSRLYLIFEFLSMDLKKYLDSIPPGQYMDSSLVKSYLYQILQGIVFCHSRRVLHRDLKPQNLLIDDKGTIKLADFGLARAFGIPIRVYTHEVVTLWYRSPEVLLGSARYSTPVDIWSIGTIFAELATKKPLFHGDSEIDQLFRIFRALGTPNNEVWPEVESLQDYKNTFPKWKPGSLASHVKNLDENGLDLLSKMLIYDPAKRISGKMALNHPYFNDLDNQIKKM
Sequence of CDK1 CCNB1 (human) (P14635 whole entry, looked up): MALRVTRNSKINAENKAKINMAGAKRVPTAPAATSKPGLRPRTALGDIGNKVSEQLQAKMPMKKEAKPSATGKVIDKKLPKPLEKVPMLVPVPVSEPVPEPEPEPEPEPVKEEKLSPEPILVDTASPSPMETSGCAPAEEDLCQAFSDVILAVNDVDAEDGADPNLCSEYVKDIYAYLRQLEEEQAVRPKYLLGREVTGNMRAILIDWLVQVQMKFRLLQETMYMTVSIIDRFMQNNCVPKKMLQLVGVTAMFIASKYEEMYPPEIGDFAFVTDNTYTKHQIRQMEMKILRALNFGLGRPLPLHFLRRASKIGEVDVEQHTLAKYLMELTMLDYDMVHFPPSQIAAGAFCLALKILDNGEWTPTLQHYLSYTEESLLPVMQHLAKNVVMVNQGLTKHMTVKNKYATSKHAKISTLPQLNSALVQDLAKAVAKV
Sequence of CDK1 CCNA2 (human) (P06493 whole entry, looked up): as the sequence (P06493 whole entry, looked up) above
Sequence of CDK1 CCNA2 (human) (P20248 whole entry, looked up): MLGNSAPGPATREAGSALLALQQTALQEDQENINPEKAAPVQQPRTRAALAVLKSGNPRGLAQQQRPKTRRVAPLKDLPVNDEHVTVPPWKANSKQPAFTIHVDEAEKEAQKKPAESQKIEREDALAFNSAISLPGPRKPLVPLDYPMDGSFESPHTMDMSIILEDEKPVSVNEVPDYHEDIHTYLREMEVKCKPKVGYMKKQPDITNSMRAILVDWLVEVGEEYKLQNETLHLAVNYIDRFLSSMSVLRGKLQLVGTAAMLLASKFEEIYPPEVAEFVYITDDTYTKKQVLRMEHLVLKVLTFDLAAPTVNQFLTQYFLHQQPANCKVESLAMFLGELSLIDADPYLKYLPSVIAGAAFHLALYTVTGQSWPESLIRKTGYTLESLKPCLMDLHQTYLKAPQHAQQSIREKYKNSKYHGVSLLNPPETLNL
Sequence of STK33 (human) (Q9BYT3 whole entry, looked up): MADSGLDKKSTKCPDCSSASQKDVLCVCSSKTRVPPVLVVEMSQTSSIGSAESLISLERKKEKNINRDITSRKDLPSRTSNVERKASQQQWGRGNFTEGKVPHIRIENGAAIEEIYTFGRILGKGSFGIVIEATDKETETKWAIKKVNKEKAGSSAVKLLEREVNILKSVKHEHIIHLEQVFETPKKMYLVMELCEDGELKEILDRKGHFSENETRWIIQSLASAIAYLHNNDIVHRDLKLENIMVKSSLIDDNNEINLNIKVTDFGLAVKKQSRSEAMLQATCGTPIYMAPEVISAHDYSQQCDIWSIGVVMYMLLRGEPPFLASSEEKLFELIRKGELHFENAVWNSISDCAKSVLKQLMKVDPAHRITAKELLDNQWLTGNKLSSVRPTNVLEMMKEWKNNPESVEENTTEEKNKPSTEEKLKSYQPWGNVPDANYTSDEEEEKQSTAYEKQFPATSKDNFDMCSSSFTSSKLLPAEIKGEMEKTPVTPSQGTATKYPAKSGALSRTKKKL
Sequence of CDK2 CCNA2 (human) (P20248 whole entry, looked up, other chains not shown): as the sequence (P20248 whole entry, looked up) above
Sequence of PRKCH (human) (P24723 whole entry, looked up): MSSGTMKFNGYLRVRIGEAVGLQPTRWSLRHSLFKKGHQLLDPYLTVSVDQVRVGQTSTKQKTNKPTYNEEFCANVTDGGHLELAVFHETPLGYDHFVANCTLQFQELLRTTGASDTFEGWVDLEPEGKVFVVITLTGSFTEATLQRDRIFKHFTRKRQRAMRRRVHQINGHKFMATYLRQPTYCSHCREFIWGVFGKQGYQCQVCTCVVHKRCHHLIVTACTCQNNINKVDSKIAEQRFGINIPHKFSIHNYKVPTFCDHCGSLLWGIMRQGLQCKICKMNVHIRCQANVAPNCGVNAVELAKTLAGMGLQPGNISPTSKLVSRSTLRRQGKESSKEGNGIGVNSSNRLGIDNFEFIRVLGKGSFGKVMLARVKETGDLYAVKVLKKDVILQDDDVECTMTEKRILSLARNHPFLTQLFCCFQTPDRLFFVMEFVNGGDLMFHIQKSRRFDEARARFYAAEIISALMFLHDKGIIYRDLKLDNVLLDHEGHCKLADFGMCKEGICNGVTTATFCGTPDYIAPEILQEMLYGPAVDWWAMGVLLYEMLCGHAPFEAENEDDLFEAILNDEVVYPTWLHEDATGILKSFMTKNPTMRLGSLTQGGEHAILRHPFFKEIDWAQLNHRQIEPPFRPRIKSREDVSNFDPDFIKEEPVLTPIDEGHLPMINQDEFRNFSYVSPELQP
Sequence of LTK (human) (P29376 whole entry, looked up): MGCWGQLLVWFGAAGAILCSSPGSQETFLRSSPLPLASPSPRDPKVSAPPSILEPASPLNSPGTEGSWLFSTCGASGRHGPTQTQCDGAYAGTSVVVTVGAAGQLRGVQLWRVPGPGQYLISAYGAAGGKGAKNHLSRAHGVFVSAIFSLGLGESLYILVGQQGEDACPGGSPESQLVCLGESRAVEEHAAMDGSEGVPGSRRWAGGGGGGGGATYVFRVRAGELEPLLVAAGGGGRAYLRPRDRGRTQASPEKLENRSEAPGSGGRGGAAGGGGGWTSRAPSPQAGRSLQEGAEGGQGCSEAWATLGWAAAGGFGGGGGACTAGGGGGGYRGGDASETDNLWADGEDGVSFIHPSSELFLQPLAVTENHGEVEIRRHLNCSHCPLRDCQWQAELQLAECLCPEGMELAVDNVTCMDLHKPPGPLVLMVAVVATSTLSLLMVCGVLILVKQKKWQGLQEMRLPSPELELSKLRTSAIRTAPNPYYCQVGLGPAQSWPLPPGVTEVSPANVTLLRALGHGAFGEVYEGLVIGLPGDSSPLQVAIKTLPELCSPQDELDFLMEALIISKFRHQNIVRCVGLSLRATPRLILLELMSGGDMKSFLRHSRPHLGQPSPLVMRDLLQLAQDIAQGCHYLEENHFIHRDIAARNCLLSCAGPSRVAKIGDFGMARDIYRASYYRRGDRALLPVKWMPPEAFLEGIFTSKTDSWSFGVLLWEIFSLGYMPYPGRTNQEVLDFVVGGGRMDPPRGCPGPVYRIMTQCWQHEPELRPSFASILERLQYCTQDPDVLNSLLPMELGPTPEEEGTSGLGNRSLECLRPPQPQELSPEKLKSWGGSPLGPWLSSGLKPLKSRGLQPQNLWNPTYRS
Sequence of CDK3 CCNE1 (human) (P24864 whole entry, looked up): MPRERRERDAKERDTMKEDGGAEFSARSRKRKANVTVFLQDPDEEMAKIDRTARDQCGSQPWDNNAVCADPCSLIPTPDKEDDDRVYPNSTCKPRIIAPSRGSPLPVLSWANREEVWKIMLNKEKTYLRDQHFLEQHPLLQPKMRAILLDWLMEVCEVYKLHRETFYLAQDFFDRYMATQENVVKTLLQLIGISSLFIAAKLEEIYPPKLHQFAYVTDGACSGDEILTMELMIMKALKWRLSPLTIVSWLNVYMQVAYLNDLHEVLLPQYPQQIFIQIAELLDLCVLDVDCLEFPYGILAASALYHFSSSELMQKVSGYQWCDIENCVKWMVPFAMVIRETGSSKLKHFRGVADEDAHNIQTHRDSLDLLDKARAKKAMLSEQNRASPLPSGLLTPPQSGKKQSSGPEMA
Sequence of CDK3 CCNE1 (human) (Q00526 whole entry, looked up): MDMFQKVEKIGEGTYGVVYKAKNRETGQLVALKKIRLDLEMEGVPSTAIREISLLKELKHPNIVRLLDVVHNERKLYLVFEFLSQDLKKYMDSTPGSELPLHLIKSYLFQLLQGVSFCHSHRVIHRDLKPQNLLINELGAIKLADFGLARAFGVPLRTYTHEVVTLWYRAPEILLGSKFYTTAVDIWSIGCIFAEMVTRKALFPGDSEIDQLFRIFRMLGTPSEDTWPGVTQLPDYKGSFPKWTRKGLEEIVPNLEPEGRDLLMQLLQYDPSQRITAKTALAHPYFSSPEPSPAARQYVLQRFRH
Sequence of CDK2 CCNE1 (human) (P24864 whole entry, looked up, other chains not shown): as the sequence (P24864 whole entry, looked up) above

Broadly, the residual activity is the signal under treatment as a percentage of the control signal. As for `O=C1c2ccccc2-[n+]2ccc3c([nH]c4ccccc43)c21`, the residual activity was 72.4% at CDK2 CCNA2 (human); 80.3% on CDK2 CCNE1 (human); 68% on CDK1 CCNA2 (human); 87.1% at PRKCH (human); 101% on STK33 (human); 121% on LTK (human). In addition, the results for the residual activity on DYRK1B (human) and on CDK3 CCNE1 (human) were 98.7% and 80.1%, respectively.
Turning to `Cc1ccc(NC(=O)c2ccc(CN3CCN(C)CC3)cc2)cc1Nc1nccc(-c2cccnc2)n1`, the residual activity on CDK9 CCNK (human) was 103%; at CDK5 CDK5R1 p35 (human), 103%; at CDK6 CCND1 (human), 99%; on CDK9 CCNT1 (human), 100%; at CDK1 CCNB1 (human), 103%; at LTK (human) it was 100%. Besides, the residual activity was 103% at CDK6 CCND3 (human); 97.9% on DYRK1B (human); 97.5% at CDK4 CCND1 (human); 97.5% on CDK3 CCNE1 (human); 101% at CDK7 CCNH MNAT1 (human); 107% at CDK4 CCND3 (human). Besides, the residual activity at CDK5 CDK5R1 p25 (human) came out at 98.1%.
As to `COc1cc(OC)c(/C=C2\C(=O)Nc3ccccc32)c(OC)c1`, the residual activity at CDK2 CCNA2 (human) came out at 96.3%; on CDK1 CCNA2 (human) it was 103%; on FYN (human) it was 100%; on PRKCH (human) it was 82.2%; on CSNK1A1 (human), 59.6%; at CDK1 CCNB1 (human) it was 83%. The residual activity on STK33 (human) is 89.5%; at LTK (human), 95.3%; on DYRK1B (human), 99%.
As to `c1cc(-c2cnn3cc(-c4ccc(OCCN5CCCCC5)cc4)cnc23)ccn1`, the residual activity is 36.7% on CDK9 CCNK (human); 67.7% on CDK5 CDK5R1 p35 (human); 87.7% at CDK2 CCNA2 (human); 21.2% at CDK6 CCND1 (human); 77.5% at CDK2 CCNE1 (human); 92.2% at CDK1 CCNA2 (human). The residual activity came out at 65% at CDK9 CCNT1 (human); 95% on PRKCH (human); 79.3% at CDK1 CCNB1 (human); 37.4% at STK33 (human); 49.7% at MAP3K7 TAB1 (human); 95.4% at LTK (human). Moreover, the residual activity was determined as 14.8% at CDK6 CCND3 (human); 26.2% at DYRK1B (human); 35.3% on CDK4 CCND1 (human); 89.9% on CDK3 CCNE1 (human); 83.7% at CDK7 CCNH MNAT1 (human); 60.7% on CDK4 CCND3 (human). For the same compound, the residual activity on CDK5 CDK5R1 p25 (human) amounted to 68.2%.
For `NC(=O)Nc1sc(-c2ccc(F)cc2)cc1C(N)=O`, at PRKCH (human), the residual activity was found to be 83.5%.
Still for that read-out and setting: the same measure for `NC(=O)c1ccc2[nH]c(-c3ccc(Oc4ccc(Cl)cc4)cc3)nc2c1`: 93.4%.
